Earlier results as cited in patent publication US7226619B1, “Material for controlling diversion of medications” (PharmoRx Inc., priority 2004, dated 2007).
Like-named read-outs stand apart in the source and are kept apart here.

Experiments:
[1] = molecular target: 2D6 component of the P450 metabolic system (Homo sapiens, UniProt P10635)
[2] = oxymorphone vs parent oxycodone; per Richard B. Patt, American Pain Society Bulletin 6(4), 1996

Sequence of 2D6 component of the P450 metabolic system (P10635 whole entry): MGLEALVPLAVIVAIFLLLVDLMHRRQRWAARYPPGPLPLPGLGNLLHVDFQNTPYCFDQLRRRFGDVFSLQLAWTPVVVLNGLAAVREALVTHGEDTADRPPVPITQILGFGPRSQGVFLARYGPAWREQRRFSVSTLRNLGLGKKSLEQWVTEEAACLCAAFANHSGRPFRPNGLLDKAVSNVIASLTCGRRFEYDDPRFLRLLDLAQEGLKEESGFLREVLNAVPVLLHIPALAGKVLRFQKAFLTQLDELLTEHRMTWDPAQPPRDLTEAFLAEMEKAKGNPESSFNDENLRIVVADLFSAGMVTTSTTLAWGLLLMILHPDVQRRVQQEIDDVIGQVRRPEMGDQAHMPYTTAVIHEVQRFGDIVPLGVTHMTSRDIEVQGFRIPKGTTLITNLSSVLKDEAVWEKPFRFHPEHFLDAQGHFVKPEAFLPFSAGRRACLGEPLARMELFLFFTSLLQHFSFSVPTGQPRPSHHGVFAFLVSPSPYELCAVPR

| SMILES | inhibitor of 2D6 (in words) ([1]; qualitative statement, no data) | inhibitor of 2D6 (in words) [1] | other results |
| --- | --- | --- | --- |
| COC(=O)C1=CO[C@@H](C)[C@H]2CN3CCc4c([nH]c5ccccc45)[C@@H]3C[C@H]12 [ajmalicine] | strong inhibitors |  |  |
| CN/C(=N/CCSCc1nc[nH]c1C)NC#N [cimetidine] |  | strong inhibitors |  |
| COc1ccc(CN(CCN(C)C)c2ccccn2)cc1 [mepyramine] |  | strong inhibitors |  |
| CN1CC[C@]23c4c5ccc(O)c4O[C@H]2C(=O)CC[C@@]3(O)[C@H]1C5 [oxymorphone] |  |  | effectiveness as an agonist relative to oxycodone [2]: at least 10 times |
| Fc1ccc([C@@H]2CCNC[C@H]2COc2ccc3c(c2)OCO3)cc1 [paroxetine] | strong inhibitors |  |  |
| C=C[C@H]1C[N@@]2CC[C@H]1C[C@@H]2[C@@H](O)c1ccnc2ccc(OC)cc12 [quinidine] | strong inhibitors |  |  |
| COC(=O)[C@H]1[C@H]2C[C@@H]3c4[nH]c5cc(OC)ccc5c4CCN3C[C@H]2C[C@@H](OC(=O)c2cc(OC)c(OC)c(OC)c2)[C@@H]1OC [reserpine] |  | strong inhibitors |  |
